Results: US20100028319A1, “COMPOSITION FOR PREVENTION OR TREATMENT OF DIABETES” (KANEKA CORPORATION, priority 2007, published 2010)

Tests used:
HIT-T15 cells [1] = assay: Effects on ATP production (intracellular ATP level, ATPLite) in HIT-T15 cells; assay type: cell-based; settings: 24 h + 24 h cultivation
Method: Ham'F12 medium (GIBCO) containing 200 units of penicillin (GIBCO), […] streptomycin (GIBCO), and 10% fetal bovine serum (GIBCO) is normally used as a growth medium for cultivating HIT-T15 cells.
A growth medium containing a fetal bovine serum at a concentration of 0.5% was placed in each well of a 96-well microplate, and HIT-T15 cells were seeded in the wells at a density of 1×10^4 cells/well. Next day, the growth medium of each well was replaced with a growth medium containing 0.5% fetal bovine serum, in which reduced coenzyme A was further added to a final concentration of 6.25, 12.5, 25, 50 or 100 μg/ml. Twenty-four hours later, the medium of each well was removed and replaced with a growth medium (containing 10% fetal bovine serum) in which reduced coenzyme A was added at the same concentration as mentioned above, and cultivation was continued for another 24 hours. After washing three times with PBS, the intracellular ATP level was measured using ATPLite (PerkinElmer).
A growth medium containing a fetal bovine serum at a concentration of 0.5% was placed in each well of a 96-well microplate, and the cells were seeded in the wells at a density of 1×10^4 cells/well. Next day, the growth medium of each well was replaced with a growth medium containing 0.5% fetal bovine serum, in which reduced coenzyme A or three kinds of coenzyme A precursors (pantothenic aid, pantethine, cystein) or oxidized coenzyme A was added. The coenzyme A precursors and the oxidized coenzyme A were added at the same molar concentrations as that of the reduced coenzyme A. Twenty-four hours later, the medium of each well was removed and replaced with a growth medium (containing 10% fetal bovine serum) in which reduced coenzyme A, the coenzyme A precursor, or oxidized coenzyme A was added at the same concentration as mentioned above, and cultivation was continued for another 24 hours. After washing three times with PBS, the intracellular ATP level was measured using ATPLite (PerkinElmer).

HIT-T15 cells [2] = assay: Glucose-responsive insulin secretion in HIT-T15 cells (ELISA); assay type: cell-based; settings: 50 μg/ml reduced coenzyme A; 20 mM glucose load; supernatant collected at intervals of 30 minutes; FIG. 3
Method: HIT-T15 cells were seeded in the wells of a 96-well plate at a density of 50,000 cells/100 μl medium/well. An RPMI 1640 medium (GIBCO) containing 1% fetal bovine serum and 6 mM glucose was used at this time. Twenty-four hours later, the medium of each well was replaced with an RPMI 1640 medium (containing 1% fetal bovine serum and 6 mM glucose) in which reduced coenzyme A was added to a final concentration of 50 μg/ml. Another 24 hours later, the medium of each well was replaced with an RPMI 1640 medium (containing 10% fetal bovine serum and 6 mM glucose) in which reduced coenzyme A was added to a final concentration of 50 μg/ml. Yet another 24 hours later, the wells were washed with Krebs-Ringer buffer containing 10 mM of HEPES (KRB-HEPES), and further added with 100 μl of KRB-HEPES, followed by culturing for one hour. Next, after removal of the KRB-HEPES, the wells were washed with the same buffer. To the wells was added 100 μl of KRB-HEPES containing 20 mM of glucose, and the supernatant liquid was collected at intervals of 30 minutes for storing frozen. At a later date, the insulin amount in the supernatant liquid samples was assayed using ELISA (Lebis).

[3] = same molar concentrations, FIG. 2

## CC(C)(COP(=O)(O)OP(=O)(O)OC[C@H]1O[C@@H](n2cnc3c(N)ncnc32)[C@H](O)[C@@H]1OP(=O)(O)O)[C@@H](O)C(=O)NCCC(=O)NCCS [reduced coenzyme A]
HIT-T15 cells [1]; reduced coenzyme A added at 6.25, 12.5, 25, 50 or 100 μg/ml, FIG. 1
  intracellular ATP level in HIT-T15 cells: significantly increased
HIT-T15 cells [1]; [3]
  ATP production in comparison to addition of oxidized coenzyme A: promoted ATP production significantly in comparison to addition of oxidized coenzyme A
  ATP production in comparison to additions of the precursors (pantothenic acid, pantethine, cystein) and a mixture of the three precursors: promoted ATP production significantly in comparison to additions of the precursors
HIT-T15 cells [2]
  glucose-responsive insulin secretion in HIT-T15 cells: significantly promoted
